Data as given in the supplement of paper PMC10307832.

Legend:
Test in all cases: relative viability (nuclei count vs DMSO), 5 days (fraction); higher = more cells survive
SGI-1776 + Phenformin = compound: CN1CCC(CNc2ccc3ncc(-c4cccc(OC(F)(F)F)c4)n3n2)CC1 [SGI-1776] + N=C(N)NC(=N)NCCc1ccccc1 [Phenformin] (partner 250 µM)
In short: (§1)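 Lung cancer cell lines in 1536-well plates were dosed by pin tool the day after seeding, either with one drug alone or with a fixed anchor-drug dose plus five library-drug doses (not always all listed) in √10 steps. After 5 days, cells were fixed and their nuclei stained in one step (final 0.05% Triton X-100, 1% formaldehyde, 1 ug/ml Hoechst), then counted on 4× images. Relative viability is the nuclei count in treated wells divided by that in vehicle wells. Values are medians of duplicate plates.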

SGI-1776 + Trametinib = compound: CN1CCC(CNc2ccc3ncc(-c4cccc(OC(F)(F)F)c4)n3n2)CC1 [SGI-1776] + CC(=O)Nc1cccc(-n2c(=O)n(C3CC3)c(=O)c3c(Nc4ccc(I)cc4F)n(C)c(=O)c(C)c32)c1 [Trametinib] (partner 0.02 µM)
In short: as §1

[1] = compound: C1COCCN1C2=NC(=NC3=C2OC4=C3C=CC=N4)C5=CC(=CC=C5)NC(=O)C6=CN=C(C=C6)N + Cc1nc(Nc2ncc(C(=O)Nc3c(C)cccc3Cl)s2)cc(N2CCN(CCO)CC2)n1 [Dasatinib] (partner 0.075 µM)
In short: as §1

[2] = compound: C1COCCN1C2=NC(=NC3=C2OC4=C3C=CC=N4)C5=CC(=CC=C5)NC(=O)C6=CN=C(C=C6)N + COc1cccc2cc(-c3nc([C@H]4CC[C@H](C(=O)O)CC4)n4ncnc(N)c34)[nH]c12 [OSI-027] (partner 0.5 µM)
In short: as §1

Cell Line	relative viability (SGI-1776 + Phenformin; first compound 0.08 µM)	relative viability (SGI-1776 + Phenformin; first compound 0.8 µM)	relative viability (SGI-1776 + Phenformin; first compound 2.53 µM)	relative viability (SGI-1776 + Phenformin; first compound 8 µM)	relative viability (SGI-1776 + Trametinib; first compound 0.08 µM)	relative viability (SGI-1776 + Trametinib; first compound 0.8 µM)	relative viability (SGI-1776 + Trametinib; first compound 2.53 µM)	relative viability (SGI-1776 + Trametinib; first compound 8 µM)	relative viability ([1]; first compound 0.02 µM)	relative viability ([1]; first compound 0.06325 µM)	relative viability ([1]; first compound 0.2 µM)	relative viability ([1]; first compound 0.6325 µM)	relative viability ([1]; first compound 2 µM)	relative viability ([2]; first compound 0.02 µM)	relative viability ([2]; first compound 0.06325 µM)	relative viability ([2]; first compound 0.2 µM)	relative viability ([2]; first compound 0.6325 µM)	relative viability ([2]; first compound 2 µM)
NCI-H2087	0.444	0.394	0.432	0.44	0.151	0.164	0.16	0.17	0.942	0.913	0.799	0.845	0.441	0.508	0.508	0.47	0.472	0.267
NCI-H2170	0.388	0.382	0.345	0.307	0.925	0.924	0.855	0.912	0.561	0.507	0.551	0.538	0.618	0.796	0.76	0.651	0.786	0.596
HCC-78	0.779	0.775	0.695	0.592	0.772	0.804	0.693	0.72	0.406	0.449	0.456	0.345	0.403	0.409	0.389	0.369	0.407	0.329
NCI-H1395	0.464	0.434	0.46	0.413	1.16	0.984	0.951	0.887	0.388	0.359	0.394	0.353	0.369	0.562	0.49	0.523	0.604	0.519
NCI-H2228	0.345	0.327	0.286	0.164	0.591	0.487	0.52	0.35	0.647	0.487	0.439	0.33	0.246	0.51	0.606	0.519	0.485	0.251
H3255	0.372	0.391	0.331	0.325	0.633	0.582	0.577	0.559	0.358	0.362	0.35	0.295	0.315	0.626	0.56	0.464	0.465	0.552
HCC-15	0.45	0.417	0.372	0.343	0.262	0.376	0.332	0.338	0.677	0.612	0.567	0.561	0.476	0.709	0.702	0.644	0.506	0.456
NCI-H727	0.525	0.577	0.552	0.498	0.454	0.38	0.391	0.372	0.388	0.351	0.295	0.442	0.345	0.542	0.517	0.624	0.588	0.541
NCI-H2023	0.379	0.377	0.332	0.282	0.539	0.508	0.491	0.312	0.632	0.648	0.47	0.484	0.251	0.369	0.419	0.277	0.182	0.167
NCI-H522	0.708	0.676	0.698	0.563	0.81	0.789	0.723	0.798	0.936	0.983	0.899	0.877	0.837	0.75	0.732	0.714	0.687	0.721
ChaGo-K-1	0.491	0.526	0.458	0.408	0.878	0.865	0.874	0.909	0.555	0.625	0.605	0.508	0.522	0.529	0.566	0.523	0.586	0.466
COR-L23	0.488	0.479	0.444	0.358	0.694	0.619	0.613	0.408	0.505	0.604	0.451	0.472	0.327	0.937	0.733	0.739	0.704	0.432
EMC-BAC-2	0.517	0.475	0.469	0.419	0.992	0.966	0.853	0.879	0.334	0.378	0.317	0.356	0.294	0.346	0.406	0.333	0.346	0.32
LCLC-97TM1	0.487	0.434	0.465	0.456	0.216	0.205	0.195	0.199	0.865	0.939	0.762	0.914	0.675	0.525	0.519	0.485	0.507	0.353
LK-2	0.396	0.515	0.428	0.168	0.778	0.69	0.63	0.708	0.253	0.284	0.245	0.245	0.283	0.196	0.178	0.165	0.216	0.196
NCI-H3122	0.371	0.328	0.309	0.278	0.238	0.19	0.274	0.244	0.796	0.786	0.787	0.868	0.657	0.998	1.01	0.835	0.977	0.347
NCI-H2126	0.543	0.509	0.535	0.473	0.585	0.572	0.293	0.472	0.691	0.587	0.528	0.507	0.551	0.664	0.767	0.652	0.675	0.708
NCI-H520	0.687	0.597	0.53	0.316	0.773	0.816	0.686	0.544	0.227	0.188	0.219	0.177	0.131	0.263	0.257	0.233	0.263	0.211
LU99A	0.816	0.712	0.915	0.783	0.62	0.594	0.542	0.515	0.538	0.533	0.37	0.347	0.182	0.308	0.288	0.241	0.274	0.267
NCI-H1666	0.615	0.544	0.527	0.502	0.95	0.846	0.935	0.842	0.865	0.761	0.658	0.632	0.517	0.949	0.816	0.79	0.777	0.546
NCI-H460	0.502	0.471	0.477	0.361	0.127	0.162	0.208	0.154	0.521	0.361	0.417	0.414	0.185	0.578	0.639	0.505	0.237	0.185
